Source: publication PMC12415691 (RSC Advances, 2025)

Molecular target: T1, rabbit ALOX15 (Oryctolagus cuniculus, UniProt P12530)
T1 sequence (P12530 1-663): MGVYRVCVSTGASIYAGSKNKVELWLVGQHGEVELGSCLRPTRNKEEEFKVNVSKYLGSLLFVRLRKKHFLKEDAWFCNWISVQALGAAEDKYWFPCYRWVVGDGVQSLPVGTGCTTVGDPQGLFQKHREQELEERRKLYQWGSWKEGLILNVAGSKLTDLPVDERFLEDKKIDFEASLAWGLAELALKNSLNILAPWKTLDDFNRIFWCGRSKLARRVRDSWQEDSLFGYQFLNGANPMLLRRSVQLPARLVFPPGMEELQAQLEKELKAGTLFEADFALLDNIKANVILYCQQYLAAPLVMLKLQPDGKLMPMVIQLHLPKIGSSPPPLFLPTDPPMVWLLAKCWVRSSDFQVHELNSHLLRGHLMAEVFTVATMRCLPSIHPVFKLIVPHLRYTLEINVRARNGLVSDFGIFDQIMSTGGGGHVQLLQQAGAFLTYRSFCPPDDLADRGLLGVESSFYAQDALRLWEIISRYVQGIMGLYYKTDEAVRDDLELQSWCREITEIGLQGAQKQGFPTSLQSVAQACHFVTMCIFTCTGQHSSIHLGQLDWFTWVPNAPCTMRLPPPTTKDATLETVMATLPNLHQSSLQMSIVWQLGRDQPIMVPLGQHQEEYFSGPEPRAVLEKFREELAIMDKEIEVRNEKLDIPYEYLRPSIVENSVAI
Assay: Kinetic measurements of LA/AA oxygenation with inhibitor
Assay type: biochemical
Settings: best fit of kinetic data

For CCCCCCCCOC(=O)NS(=O)(=O)Nc1ccc(-c2cc3ccccc3[nH]2)cc1OC [compound 3, Octyl (N-(4-(1H-indol-2-yl)-2-methoxyphenyl)sulfamoyl)-carbamate], the “mode of inhibition of AA oxygenation” value (AA as substrate) was “uncompetitive mode of inhibition” and the “mode of inhibition of LA oxygenation” value (LA as substrate) was “uncompetitive mode of inhibition”.
